According to ChEMBL document CHEMBL3885881, “DrugMatrix”:

Organism: Rattus norvegicus
Format: toxicity, organism-based, Sprague-Dawley
Conditions: in vivo, po, route oral GAVAGE, […]; for ABSOLUTE EOSINOPHIL / ABSOLUTE LYMPHOCYTE / ABSOLUTE MONOCYTE / ABSOLUTE SEGMENTED NEUTROPHIL / BASOPHIL / EOSINOPHIL / ERYTHROCYTE COUNT / HEMATOCRIT / HEMOGLOBIN / LEUKOCYTE COUNT / LYMPHOCYTE / MEAN CORPUSCULAR HEMOGLOBIN / MEAN CORPUSCULAR HEMOGLOBIN CONCENTRATION / MEAN CORPUSCULAR VOLUME / MONOCYTE / NEUTROPHIL / NUCLEATED RED BLOOD CELLS / PLATELET COUNT: tissue Blood; for ALANINE AMINOTRANSFERASE / ALKALINE PHOSPHATASE / ASPARTATE AMINOTRANSFERASE / BLOOD UREA NITROGEN / CARBON DIOXIDE / CHLORIDE / CHOLESTEROL / CREATINE PHOSPHOKINASE / CREATININE / GLUCOSE / LACTATE DEHYDROGENASE / LIPASE / PHOSPHORUS / POTASSIUM / SODIUM / TOTAL BILIRUBIN / TOTAL PROTEIN / URIC ACID: tissue Plasma
[1] = 0 mg/kg, 6 h, vehicle control, dose level Control, time 0.25 day
[2] = 0 mg/kg, 24 h, vehicle control, dose level Control, time 1 day
[3] = 100 mg/kg, 6 h, dose level Low, time 0.25 day

Description: DrugMatrix - Regimen: Single

Cc1ccc(C)c(OCCCC(C)(C)C(=O)O)c1 [GEMFIBROZIL]
ABSOLUTE EOSINOPHIL [1]: 0 CELLS/uL
ABSOLUTE LYMPHOCYTE [1]: 8631 CELLS/uL
ABSOLUTE MONOCYTE [1]: 171.17 CELLS/uL
ABSOLUTE SEGMENTED NEUTROPHIL [1]: 1214.5 CELLS/uL
BASOPHIL [1]: 0%
EOSINOPHIL [1]: 0%
ERYTHROCYTE COUNT [1]: 5.42 x10E6/uL
HEMATOCRIT [1]: 34.7%
HEMOGLOBIN [1]: 13.67 G/DL
LEUKOCYTE COUNT [1]: 10.02 x10E3/uL
LYMPHOCYTE [1]: 86.17%
MEAN CORPUSCULAR HEMOGLOBIN [1]: 25.27 pg
MEAN CORPUSCULAR HEMOGLOBIN CONCENTRATION [1]: 39.42 G/DL
MEAN CORPUSCULAR VOLUME [1]: 64.12 fL
MONOCYTE [1]: 1.67%
NEUTROPHIL [1]: 12.17%
NUCLEATED RED BLOOD CELLS [1]: 0 /100WBC
PLATELET COUNT [1]: 1050 x10E3/uL
ALANINE AMINOTRANSFERASE [1]: 61 u/L
ALKALINE PHOSPHATASE [1]: 312.5 u/L
ASPARTATE AMINOTRANSFERASE [1]: 117.5 u/L
BLOOD UREA NITROGEN [1]: 8.67 mg/dL
CARBON DIOXIDE [1]: 26.33 mmol/L
CHLORIDE [1]: 100.5 MEQ/L
CHOLESTEROL [1]: 72 mg/dL
CREATINE PHOSPHOKINASE [1]: 283.33 u/L
CREATININE [1]: 0.28 mg/dL
GLUCOSE [1]: 172 mg/dL
LACTATE DEHYDROGENASE [1]: 95.33 u/L
LIPASE [1]: 10.17 u/L
PHOSPHORUS [1]: 9.9 mg/dL
POTASSIUM [1]: 5.75 MEQ/L
SODIUM [1]: 142.4 MEQ/L
TOTAL BILIRUBIN [1]: 0.3 mg/dL
TOTAL PROTEIN [1]: 5.43 G/DL
URIC ACID [1]: 0.73 mg/dL
ABSOLUTE EOSINOPHIL [2]: 90.83 CELLS/uL
ABSOLUTE LYMPHOCYTE [2]: 14725.17 CELLS/uL
ABSOLUTE MONOCYTE [2]: 220 CELLS/uL
ABSOLUTE SEGMENTED NEUTROPHIL [2]: 1080.67 CELLS/uL
BASOPHIL [2]: 0%
EOSINOPHIL [2]: 0.67%
ERYTHROCYTE COUNT [2]: 5.3 x10E6/uL
HEMATOCRIT [2]: 33.4%
HEMOGLOBIN [2]: 13.4 G/DL
LEUKOCYTE COUNT [2]: 16.12 x10E3/uL
LYMPHOCYTE [2]: 91.17%
MEAN CORPUSCULAR HEMOGLOBIN [2]: 25.3 pg
MEAN CORPUSCULAR HEMOGLOBIN CONCENTRATION [2]: 40.12 G/DL
MEAN CORPUSCULAR VOLUME [2]: 63.05 fL
MONOCYTE [2]: 1.5%
NEUTROPHIL [2]: 6.67%
NUCLEATED RED BLOOD CELLS [2]: 0 /100WBC
PLATELET COUNT [2]: 1062 x10E3/uL
ALANINE AMINOTRANSFERASE [2]: 69 u/L
ALKALINE PHOSPHATASE [2]: 269 u/L
ASPARTATE AMINOTRANSFERASE [2]: 83.67 u/L
BLOOD UREA NITROGEN [2]: 14 mg/dL
CARBON DIOXIDE [2]: 29 mmol/L
CHLORIDE [2]: 100.83 MEQ/L
CHOLESTEROL [2]: 66.67 mg/dL
CREATINE PHOSPHOKINASE [2]: 355 u/L
CREATININE [2]: 0.18 mg/dL
GLUCOSE [2]: 161.33 mg/dL
LACTATE DEHYDROGENASE [2]: 123.33 u/L
LIPASE [2]: 10.67 u/L
PHOSPHORUS [2]: 8.83 mg/dL
POTASSIUM [2]: 6.06 MEQ/L
SODIUM [2]: 142.45 MEQ/L
TOTAL BILIRUBIN [2]: 0.2 mg/dL
TOTAL PROTEIN [2]: 5.72 G/DL
URIC ACID [2]: 1.27 mg/dL
ABSOLUTE EOSINOPHIL [3]: 97 CELLS/uL
ABSOLUTE LYMPHOCYTE [3]: 13743.17 CELLS/uL
ABSOLUTE MONOCYTE [3]: 354.83 CELLS/uL
ABSOLUTE SEGMENTED NEUTROPHIL [3]: 1355 CELLS/uL
BASOPHIL [3]: 0%
EOSINOPHIL [3]: 0.67%
ERYTHROCYTE COUNT [3]: 5.46 x10E6/uL
HEMATOCRIT [3]: 35.92%
HEMOGLOBIN [3]: 13.93 G/DL
LEUKOCYTE COUNT [3]: 15.55 x10E3/uL
LYMPHOCYTE [3]: 88.33%
MEAN CORPUSCULAR HEMOGLOBIN [3]: 25.62 pg
MEAN CORPUSCULAR HEMOGLOBIN CONCENTRATION [3]: 38.85 G/DL
MEAN CORPUSCULAR VOLUME [3]: 65.98 fL
MONOCYTE [3]: 2.17%
NEUTROPHIL [3]: 8.83%
NUCLEATED RED BLOOD CELLS [3]: 0 /100WBC
PLATELET COUNT [3]: 1082.83 x10E3/uL
ALANINE AMINOTRANSFERASE [3]: 47.5 u/L
ALKALINE PHOSPHATASE [3]: 284.67 u/L
ASPARTATE AMINOTRANSFERASE [3]: 80.83 u/L
BLOOD UREA NITROGEN [3]: 8 mg/dL
CARBON DIOXIDE [3]: 26.67 mmol/L
CHLORIDE [3]: 100.17 MEQ/L
CHOLESTEROL [3]: 76 mg/dL
CREATINE PHOSPHOKINASE [3]: 275.33 u/L
CREATININE [3]: 0.13 mg/dL
GLUCOSE [3]: 141.33 mg/dL
LACTATE DEHYDROGENASE [3]: 112.33 u/L
LIPASE [3]: 11 u/L
PHOSPHORUS [3]: 11.7 mg/dL
POTASSIUM [3]: 6.32 MEQ/L
SODIUM [3]: 141.92 MEQ/L
TOTAL BILIRUBIN [3]: 0.37 mg/dL
TOTAL PROTEIN [3]: 5.85 G/DL
URIC ACID [3]: 1.2 mg/dL
